We go through 14 compounds from the NIST ThermoML archive (doi:10.1016/j.jct.2008.04.002).

± gives the expanded uncertainty stated by the source.

The data set in a line: activity coefficient (dimensionless); of the first substance listed, at infinite dilution; xn = mol fraction of the nth substance listed. To be noted: Liquid, Chromatography, x1 = 0.

For the compound `C#CCCCCC` [1-heptyne] + CC(CC(C)(C)C)CP(=O)([O-])CC(C)CC(C)(C)C.CCCCCCCCCCCCCC[P+](CCCCCC)(CCCCCC)CCCCCC, the activity coefficient is, setting by setting: (303.15 K) 0.33 ± 0.04; (308.15 K) 0.35 ± 0.04; (313.15 K) 0.39 ± 0.04; (318.15 K) 0.41 ± 0.04.
With `C#CCCCC` [1-hexyne] + CC(CC(C)(C)C)CP(=O)([O-])CC(C)CC(C)(C)C.CCCCCCCCCCCCCC[P+](CCCCCC)(CCCCCC)CCCCCC, the activity coefficient (303.15 K) amounted to 0.38 ± 0.04, the activity coefficient (308.15 K) was 0.4 ± 0.04, the activity coefficient (313.15 K) stood at 0.43 ± 0.04 and the activity coefficient (318.15 K) was determined as 0.46 ± 0.04.
The like results for `C#CCCCCCC` [1-octyne] + CC(CC(C)(C)C)CP(=O)([O-])CC(C)CC(C)(C)C.CCCCCCCCCCCCCC[P+](CCCCCC)(CCCCCC)CCCCCC were, in that order, 0.28 ± 0.03, 0.33 ± 0.04, 0.36 ± 0.04 and 0.39 ± 0.04.
In the same order, the values of `C=CCCC` [1-pentene] + CC(CC(C)(C)C)CP(=O)([O-])CC(C)CC(C)(C)C.CCCCCCCCCCCCCC[P+](CCCCCC)(CCCCCC)CCCCCC are 0.59 ± 0.05, 0.61 ± 0.05, 0.62 ± 0.05 and 0.64 ± 0.06.
In the same order, the values of `c1ccccc1` [benzene] + CC(CC(C)(C)C)CP(=O)([O-])CC(C)CC(C)(C)C.CCCCCCCCCCCCCC[P+](CCCCCC)(CCCCCC)CCCCCC are 0.44 ± 0.04, 0.47 ± 0.04, 0.48 ± 0.05 and 0.49 ± 0.05.
For `C1CCCCCC1` [cycloheptane] + CC(CC(C)(C)C)CP(=O)([O-])CC(C)CC(C)(C)C.CCCCCCCCCCCCCC[P+](CCCCCC)(CCCCCC)CCCCCC, the activity coefficient by setting is: (303.15 K) 0.56 ± 0.05; (308.15 K) 0.56 ± 0.05; (313.15 K) 0.58 ± 0.05; (318.15 K) 0.6 ± 0.05.
For the compound `C1CCCCC1` [cyclohexane] + CC(CC(C)(C)C)CP(=O)([O-])CC(C)CC(C)(C)C.CCCCCCCCCCCCCC[P+](CCCCCC)(CCCCCC)CCCCCC, the activity coefficient came out at 0.51 ± 0.05 (303.15 K), 0.52 ± 0.05 (308.15 K), 0.54 ± 0.05 (313.15 K) and 0.56 ± 0.05 (318.15 K).
The like results for `C1CCCC1` [cyclopentane] + CC(CC(C)(C)C)CP(=O)([O-])CC(C)CC(C)(C)C.CCCCCCCCCCCCCC[P+](CCCCCC)(CCCCCC)CCCCCC were, in that order, 0.45 ± 0.04, 0.46 ± 0.04, 0.48 ± 0.05 and 0.5 ± 0.05.
`CCCCCCC` [heptane] + CC(CC(C)(C)C)CP(=O)([O-])CC(C)CC(C)(C)C.CCCCCCCCCCCCCC[P+](CCCCCC)(CCCCCC)CCCCCC: the activity coefficient (303.15 K) is 0.77 ± 0.07, the activity coefficient (308.15 K) came out at 0.79 ± 0.07, the activity coefficient (313.15 K) amounted to 0.81 ± 0.07 and the activity coefficient (318.15 K) was 0.83 ± 0.07.
Turning to `C=CCCCC` [hex-1-ene] + CC(CC(C)(C)C)CP(=O)([O-])CC(C)CC(C)(C)C.CCCCCCCCCCCCCC[P+](CCCCCC)(CCCCCC)CCCCCC, the activity coefficient amounted to 0.63 ± 0.06 (303.15 K), 0.65 ± 0.06 (308.15 K), 0.68 ± 0.06 (313.15 K) and 0.7 ± 0.06 (318.15 K).
As for `CCCCCC` [hexane] + CC(CC(C)(C)C)CP(=O)([O-])CC(C)CC(C)(C)C.CCCCCCCCCCCCCC[P+](CCCCCC)(CCCCCC)CCCCCC, the activity coefficient reads like this: (303.15 K) 0.71 ± 0.06; (308.15 K) 0.73 ± 0.06; (313.15 K) 0.73 ± 0.06; (318.15 K) 0.75 ± 0.06.
For the compound `C=CCCCCCC` [oct-1-ene] + CC(CC(C)(C)C)CP(=O)([O-])CC(C)CC(C)(C)C.CCCCCCCCCCCCCC[P+](CCCCCC)(CCCCCC)CCCCCC, the activity coefficient by setting is: (303.15 K) 0.75 ± 0.06; (308.15 K) 0.76 ± 0.06; (313.15 K) 0.78 ± 0.07; (318.15 K) 0.81 ± 0.07.
The like results for `CCCCCCCC` [octane] + CC(CC(C)(C)C)CP(=O)([O-])CC(C)CC(C)(C)C.CCCCCCCCCCCCCC[P+](CCCCCC)(CCCCCC)CCCCCC were, in that order, 0.79 ± 0.07, 0.82 ± 0.07, 0.85 ± 0.07 and 0.86 ± 0.07.
In the case of `CCCCC` [pentane] + CC(CC(C)(C)C)CP(=O)([O-])CC(C)CC(C)(C)C.CCCCCCCCCCCCCC[P+](CCCCCC)(CCCCCC)CCCCCC, the activity coefficient runs as follows: (303.15 K) 0.66 ± 0.06; (308.15 K) 0.69 ± 0.06; (313.15 K) 0.7 ± 0.06; (318.15 K) 0.71 ± 0.06.
